Test results: patent US6750034B1, “DNA encoding human serine protease D-G” (Ortho-McNeil Pharmaceutical, Inc., priority 2000, dated 2004)
[ ]: non-standard residue; d: D form. The star is where a group is joined. pNA = O=[N+]([O-])c1ccc(N*)cc1; Cbz = O=C(OCc1ccccc1)*

Biological target: T1, activated protease D-G-6×HIS (Homo sapiens, UniProt Q9NRS4)
T1 construct: enterokinase cleavage site from human trypsinogen I (EK) (N, cleaved yes); made in house; host or cells: Sf9 insect cells, baculovirus (pFastBac 1)
T1 sequence (Q9NRS4 205-434 limits assumed): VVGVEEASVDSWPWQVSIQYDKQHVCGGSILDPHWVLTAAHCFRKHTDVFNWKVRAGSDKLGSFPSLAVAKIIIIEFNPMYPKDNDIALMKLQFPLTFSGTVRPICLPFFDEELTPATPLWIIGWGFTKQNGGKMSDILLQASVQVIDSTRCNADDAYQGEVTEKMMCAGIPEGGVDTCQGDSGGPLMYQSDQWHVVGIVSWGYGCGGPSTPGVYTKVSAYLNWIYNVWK
Experiment: Chromogenic (amidolytic) assay, release of pNA from synthetic substrates
Format: biochemical
Details: recombinant activated protease D-G-6×HIS; substrate 500 uM; 10 mM TRIS-HCl pH 7.8, 25 mM NaCl, 25 mM imidazole; 37° C., 120 min, 405 nm; N.A. = No Activity
Procedure: Amidolytic activities of the activated serine proteases are monitored by release of para-nitroaniline (pNA) from synthetic substrates that are commercially available (Bachem California Inc., Torrance, […].; American Diagnostica Inc., Greenwich, Conn.; Kabi Pharmacia Hepar Inc., Franklin, Ohio). Assay mixtures contain chromogenic substrates in 500 uM and 10 mM TRIS-HCl (pH 7.8), 25 mM NaCl, and 25 mM imidazole. Release of pNA is measured over 120 min at 37° C. on a micro-plate reader (Molecular Devices, Menlo Park, Calif.) with a 405 nm absorbance filter. The initial reaction rates (Vmax, mOD/min) are determined from plots of absorbance versus time using Softmax (Molecular Devices, Menlo Park, Calif.). The specific activities (nmole pNA produced/min/ug protein) of the activated protease D-G-6×HIS for the various substrates are presented in Table 1.
Table 1—The specific activity (nmole pNA produced/min/ug protein) of recombinant activated protease D-G-6×HIS, determined for the various substrates analyzed, is shown.

Substance	Specific Activity
H-[dV]-Leu-Arg-pNA	0.025 ± 0.003 nmole pNA produced/min/ug protein
H-D-LYS(CBO)-Pro-Arg-pNA	0.076 ± 0.008 nmole pNA produced/min/ug protein
H-[dV]-Leu-Lys-pNA	0.034 ± 0.003 nmole pNA produced/min/ug protein
H-D-Pro-HHT-Arg-pNA	0.046 ± 0.001 nmole pNA produced/min/ug protein
Cbz-Phe-Arg-pNA	0.116 ± 0.006 nmole pNA produced/min/ug protein
